Assay results from BindingDB's records for doi:10.1073/pnas.92.19.8734 (Massachusetts General Hospital, 1995).

Tests used:
[1] = target: T1, Melatonin receptor type 1B (Homo sapiens, UniProt P49286)
T1 sequence (P49286 whole entry): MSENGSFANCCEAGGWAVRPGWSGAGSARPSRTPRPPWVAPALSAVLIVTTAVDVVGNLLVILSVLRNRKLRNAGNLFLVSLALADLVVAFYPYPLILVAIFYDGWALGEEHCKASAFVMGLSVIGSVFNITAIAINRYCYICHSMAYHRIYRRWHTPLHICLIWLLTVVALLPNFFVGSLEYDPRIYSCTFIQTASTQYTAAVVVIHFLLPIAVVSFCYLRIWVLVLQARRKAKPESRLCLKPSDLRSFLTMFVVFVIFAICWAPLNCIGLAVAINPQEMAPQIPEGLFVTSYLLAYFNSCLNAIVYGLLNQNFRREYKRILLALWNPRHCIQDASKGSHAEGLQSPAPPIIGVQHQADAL

[2] = target: Melatonin receptor type 1A (Homo sapiens, UniProt P48039)
Chain of Melatonin receptor type 1A (P48039 whole entry): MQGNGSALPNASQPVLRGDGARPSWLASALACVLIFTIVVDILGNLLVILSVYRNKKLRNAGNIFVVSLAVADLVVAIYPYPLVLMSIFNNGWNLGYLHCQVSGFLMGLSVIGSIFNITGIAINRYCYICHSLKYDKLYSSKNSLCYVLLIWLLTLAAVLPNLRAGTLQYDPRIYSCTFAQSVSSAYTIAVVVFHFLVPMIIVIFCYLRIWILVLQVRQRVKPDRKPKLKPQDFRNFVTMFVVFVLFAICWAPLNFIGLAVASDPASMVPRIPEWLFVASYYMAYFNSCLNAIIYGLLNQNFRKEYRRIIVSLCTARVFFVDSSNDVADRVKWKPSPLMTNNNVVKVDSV

SMILES	Ki [1] [nM]	Ki [2] [nM]
CC(=O)n1cc(CCN)c2cc(O)ccc21 [NSC_260803]	595	986
NCCc1c[nH]c2ccc(O)cc12 [[3H]-5-HT]	> 10000	
COc1cc2nc(N3CCN(C(=O)c4ccco4)CC3)nc(N)c2cc1OC [[3H]-Minipress]	> 10000	> 10000
